From EP1038880B1, “Androstanes and pregnanes for allosteric modulation of GABA receptor” (priority 1994, dated 1995) come the findings set out here.

What is called IC50 is the point on the concentration scale where inhibition reaches its midpoint. A high value points to weaker potency in that assay.

Structures are written as SMILES.

The subject of assay [1] is metrazol induced convulsions. The assay is described as follows: animal or person. It counts as in vivo, mice. The settings on record: 60 mg/kg, 1hr, IP. As for the experimental part: Experiments were also performed to determine the physiological relevance of neuroactive steroid and GABA receptor interactions by assessing the ability of the compounds of and used in the invention to prevent metrazol induced convulsions in mice. Mice were injected with various doses of the test compounds of the invention, 10 minutes prior to the injection of metrazol. The time to onset of myoclomis (presence of forelimb clonic activity) induced by metrazol was determined by observing each mouse for a period of 30 minutes. […] Table 6: Antimetrazol Activity of Neuroactive Steroids in Mice
The anticonvulsant tests are similar to that described above. […] The number of animals with tonic and/or clonic convulsions was recorded. In the maximal electroshock test, 50 mA of current at 60 Hz was delivered through corneal electrodes for 200 msec to induce tonic seizure. The ability of compounds to abolish the tonic component was defined as the endpoint. General CNS depression potential was determined by a rotorod test 10 minutes after the injection of compounds where the number of mice staying on a rotating (6 rpm) rod for 1 minute in one of the three trials was determined. […] Table 7. Anticonvulsant Activity of Exemplified Neuroactive Steroids and those of Selected Clinically Useful Anticonvulsants in Mice

The next assay has as its target GR complex. The assay is described as follows: [35S]TBPS binding assay (inhibition of [35S]TBPS binding, cerebral cortex P2 homogenate). The arrangement: species or system rat. The settings on record: for IC50: 2 nM [35S]TBPS, rat cerebral cortex P2 homogenate; for IMAX: maximum inhibition of [35S]TBPS binding. As for the experimental part: We performed several experiments to determine the nature of the modulation of [^35S]TBPS as affected by the compounds of the invention.
These procedures were performed as follows:
Brains from male Sprague-Dawley rats were removed immediately following sacrifice and the cerebral cortices dissected over ice. […] Briefly, the cortices were gently homogenized in 0.32 M sucrose followed by centrifugation at 1000 x g for 10 minutes. The supernatant was collected and centrifuged at 9000 x g for 20 minutes. The resultant P2 pellet was suspended as a 10% (original wet weight/volume) suspension in 50 mM Na/K phosphate buffer (pH 7.4) 200 mM NaCl to form the homogenate.
One hundred microliter […] aliquots of the P2 homogenate (0.5 milligrams (mg) protein) were incubated with 2 nanomolar (nM) [^35S]TBPS (70-110 curies/millimole; New England Nuclear, Boston, MA) in the presence or absence of the naturally occurring steroids or their synthetic derivatives to be tested. The tested compounds were dissolved in dimethylsulfoxide (Baker Chem. Co., Phillipsbury, NJ) and added to the incubation mixture in 5 µL aliquots. The incubation mixture was brought to a final volume of 1 mL with buffer. Non-specific binding was defined as binding in the presence of […] TBPS. The effect and specificity of GABA (Sigma Chem. Co., St. Louis, MO) was evaluated by performing all assays in the presence of GABA plus (+)bicuculline (Sigma Chem. Co.). maintained at 25°C for 90 minutes (steady state conditions) were terminated by rapid filtration through glass fiber filters (No. 32, Schleicher and Schuell, Keene, NH). Filter-bound radioactivity was quantitated by liquid scintillation spectrophotometry.
Various compounds were screened to determine their potential as modulators of [^35S]TBPS binding in vitro. These assays were performed in accordance with the above discussed procedures. […] It is an indication of a compound's in vitro potency. Maximum inhibition is an indication of a compound's in vitro efficacy.

In the case of `CC(=O)[C@H]1CC[C@H]2[C@@H]3CC[C@H]4C[C@H](OC(=O)c5ccccc5)CC[C@]4(C)[C@H]3CC[C@]12C` [Phenyl], in assay [1], the “% Protection” value is 33%.

In the case of `CCC(=O)OC1CCC2(C)C(CCC3C2CCC2(C)C(C(C)=O)CCC32)C1` (stereo not drawn) [Ethyl], the “% Protection” value in assay [1] stood at 75%.

As to `CC(=O)OC1CCC2(C)C(CCC3C2CCC2(C)C(C(C)=O)CCC32)C1` (stereo not drawn) [Methyl], the “% Protection” value in assay [1] was determined as 25%.

Regarding `CCCC(=O)OC1CCC2(C)C(CCC3C2CCC2(C)C(C(C)=O)CCC32)C1` (stereo not drawn) [Propyl], the “% Protection” value in assay [1] is on record as 75%.

In the case of `CC(=O)C1CCC2C3CCC4CC(OC(=O)c5ccc(Cl)cc5)CCC4(C)C3CCC12C` (stereo not drawn) [4-Chlorophenyl], in assay [1], the “% Protection” value stood at 50%.

At GR complex, `CC(=O)[C@H]1CC[C@H]2[C@@H]3CC[C@@H]4C[C@@](O)(C#Cc5c(F)c(F)c(F)c(F)c5F)CC[C@]4(C)[C@H]3CC[C@]12C` [3β-(pentafluorophenylethynyl)-3α-hydroxy-5β-pregnan-20-one] came in with an IC50 of 79 nM and an IMAX of 69%.

For `C[C@]12CC[C@](O)(C#CCCO)C[C@H]1CC[C@@H]1[C@@H]2CC[C@]2(C)[C@@H](C(=O)Cn3ccnn3)CC[C@@H]12` [3α-hydroxy-3β-(4-hydroxybutyn-1-yl)-21-(1,2,3-triazol-1-yl)-5β-pregnan-20-one], at GR complex, the IC50 worked out at 79 nM and the IMAX was 96%.

Molecule `COCC#C[C@@]1(O)CC[C@@]2(C)[C@H](CC[C@@H]3[C@@H]2CC[C@]2(C)[C@@H](C(C)=O)CC[C@@H]32)C1` [3α-Hydroxy-3β-(3-methoxy-1-propynyl)-5β-pregnan-20-one] showed an IMAX in the assay with GR complex of 105%.

For the molecule `C[C@@]1(O)CC[C@@]2(C)[C@@H](CC[C@@H]3[C@@H]2CC[C@]2(C)[C@@H](C(=O)Cn4cnc5ccccc54)CC[C@@H]32)C1` [21-(1' benzimidazolyl)-3α-hydroxy-3β-methyl-5α-pregnan-20-one], at GR complex, the IC50 came out at 109 nM and the IMAX stood at 95%.

In the case of `CC(=O)c1ccc(C#C[C@@]2(O)CC[C@@]3(C)[C@@H](CC[C@@H]4[C@@H]3CC[C@]3(C)[C@@H](C(C)=O)CC[C@@H]43)C2)cc1` [3β-(4'-Acetylphenylethynyl)-3α-hydroxy-5α-pregnan-20-one], at GR complex, the IC50 was 5 nM and the IMAX is recorded as 93%.

As to `C[C@]12CC[C@@H](O)C[C@H]1CC[C@@H]1[C@@H]2CC[C@]2(C)[C@@H](C(=O)Cn3cnnn3)CC[C@@H]12` [3α-hydroxy-21-(1'H-1,2,3,4-tetrazol-1'-yl)-5β-pregnan-20-one], on GR complex, the IC50 worked out at 227 nM and the IMAX is 60%.

With `CC(=O)[C@H]1CC[C@H]2[C@@H]3CC[C@@H]4C[C@@](O)(CCc5ccccc5O)CC[C@]4(C)[C@H]3CC[C@]12C` [3β-(2'-Hydroxyphenyl)ethyl-3α-hydroxy-5β-pregnan-20-one], on GR complex, the IC50 amounted to 101 nM and the IMAX is 83%.

On GR complex, `CC(=O)[C@H]1CC[C@H]2[C@@H]3CC[C@@H]4C[C@@](O)(C#Cc5ccc([N+](=O)[O-])cc5)CC[C@]4(C)[C@H]3CC[C@]12C` [3β-(4'-Nitrophenylethynyl)-3α-hydroxy-5β-pregnan-20-one] yielded an IC50 of 46 nM and an IMAX of 103%.

`CC12CCC(O)CC1CCC1C2CCC2(C)C(C(=O)Cn3ccnc3C=O)CCC12` (stereo not drawn) [3α-hydroxy-21-[1H-(2'-formyl)imidazol-1-yl]-5-pregnan-20-one]: on GR complex, the IC50 amounted to 213 nM and the IMAX is 81%.

With `C[C@]12CC[C@@H](O)C[C@H]1CC[C@@H]1[C@@H]2CC[C@]2(C)[C@@H](C(=O)Cn3cnc4ncncc43)CC[C@@H]12` [3α-hydroxy-21-(7'H-purin-7'-yl)-5β-pregnan-20-one], at GR complex, the IC50 came out at 430 nM and the IMAX is 71%.

At GR complex, `C[C@]12CC[C@@H](O)C[C@H]1CC[C@@H]1[C@@H]2CC[C@]2(C)[C@@H](C(=O)Cn3ccnc3)CC[C@@H]12` [3α-Hydroxy-21-(1'-imidazolyl)-5β-pregnan-20-one] returned an IC50 of 73 nM and an IMAX of 57%.

`CC(=O)C1CCC2C3CCC4CC(O)(C#CCn5cncn5)CCC4(C)C3CCC12C` (stereo not drawn) [3α-Hydroxy-3β-[3'-(1H-1,2,4,-triazol-1yl)-1'-propynyl]-5β-pregnan-20-one]: at GR complex, the half-maximal inhibitory concentration (IC50) came to 843 nM and the IMAX was determined as 99%.

Consider `CC(=O)[C@H]1CC[C@H]2[C@@H]3CC[C@@H]4C[C@@](O)(CCc5ccccc5)CC[C@]4(C)[C@H]3CC[C@]12C` [3α-Hydroxy-3β-(2'-phenylethyl)-5β-pregnan-20-one], for which, at GR complex, the IC50 was found to be 135 nM and the IMAX worked out at 98%.

On GR complex, `C#C[C@@]1(O)CC[C@@]2(C)[C@H](CC[C@@H]3[C@@H]2CC[C@]2(C)[C@@H](C(=O)Cn4cncn4)CC[C@@H]32)C1` [3β-ethynyl-3α-hydroxy-21-(1',2',4'-triazoyl)-5β-pregnan-20-one] came in with a 50% inhibitory concentration (IC50) of 127 nM and an IMAX of 98%.

Regarding `CC(=O)[C@H]1CC[C@H]2[C@@H]3CC[C@@H]4C[C@@](O)(C#CCCO)CC[C@]4(C)[C@H]3CC[C@]12C` [3β-(4'-hydroxy-1'-butynyl)-3α-hydroxy-5β-pregnan-20-one], on GR complex, the IC50 stood at 13 nM and the IMAX was 103%.

As to `CC12CC(N3CCOCC3)C(O)CC1CCC1C2CCC2(C)C(C(=O)Cn3cncn3)CCC12` (stereo not drawn) [3α-Hydroxy-2β-morpholinyl-21-[1'2'4'-triazolyl)]-5α-pregnan-20-one], at GR complex, the IC50 came to 1550 nM and the IMAX is on record as 97%.

Turning to `CC(=O)CCC#C[C@@]1(O)CC[C@@]2(C)[C@H](CC[C@@H]3[C@@H]2CC[C@]2(C)[C@@H](C(C)=O)CC[C@@H]32)C1` [3α-Hydroxy-3β-[5-oxo-1-hexynyl]-5β-pregnan-20-one], on GR complex, the IC50 stood at 118 nM and the IMAX amounted to 101%.

Regarding `CC(=O)[C@H]1CC[C@H]2[C@@H]3CC[C@@H]4C[C@@](O)(C#CCc5ccccc5)CC[C@]4(C)[C@H]3CC[C@]12C` [3α-Hydroxy-3β-(3'-phenyl-1'-propynyl)-5β-pregnan-20-one], on GR complex, the IC50 stood at 103 nM and the IMAX is listed as 95%.

As to `C[C@]12CC[C@H]3[C@@H](CC[C@@H]4C[C@@](O)(C#CCCO)CC[C@@H]43)[C@@H]1CC[C@@H]2C(=O)Cn1nccn1` [3α-hydroxy-3β-(4-hydroxybutyn-1-yl)-21-(2H-1,2,3-triazol-2-yl)-5β-19-norpregnan-20-one], at GR complex, the IC50 was 56 nM and the IMAX is recorded as 93%.

At GR complex, `Cc1nccn1CC(=O)[C@H]1CC[C@H]2[C@@H]3CC[C@@H]4C[C@H](O)CC[C@]4(C)[C@H]3CC[C@]12C` [3α-hydroxy-21-[1H-(2-methyl)imidazol-1-yl)-5β-pregnan-20-one] displayed an IC50 of 222 nM and an IMAX of 95%.

Regarding `CC12CCC(O)(C#CCO)CC1CCC1C2CCC2(C)C(C(=O)Cn3nccn3)CCC12` (stereo not drawn) [3α-Hydroxy-3β-(3-hydroxypropyn-1-yl)-21-(1,2,3-triazol-2-yl)-5β-pregnan-20-one], on GR complex, the IC50 came out at 430 nM and the IMAX amounted to 107%.

At GR complex, `CC(=O)c1cccc(C#C[C@@]2(O)CC[C@@]3(C)[C@H](CC[C@@H]4[C@@H]3CC[C@]3(C)[C@@H](C(C)=O)CC[C@@H]43)C2)c1` [3β-(3'-Acetylphenylethynyl)-3α-hydroxy-5β-pregnan-20-one] had an IC50 of 62 nM and an IMAX of 100%.

As to `CC(=O)[C@H]1CC[C@H]2[C@@H]3CCC4=CC(=O)CC[C@]4(C)[C@H]3CC[C@]12C` [Progesterone, reference compound], on GR complex, the IC50 is 5200 nM and the IMAX is 100%.

For `C[C@]12CC[C@@H](O)C[C@@H]1CC[C@@H]1[C@@H]2CC[C@]2(C)[C@@H](C(=O)CSS(=O)(=O)[O-])CC[C@@H]12.[Na+]` [Sodium S-(3α-hydroxy-5α-pregnan-20-on-21-yl) thiosulfate], at GR complex, the IC50 amounted to 133 nM and the IMAX was 90%.

At GR complex, `CC(=O)c1ccc(C#CC2(O)CCC3C(CCC4C3CCC3(C)C(C(C)=O)CCC43)C2)cc1` (stereo not drawn) [3β-(4'-Acetylphenyl)ethynyl-3α-hydroxy-5β-19-norpregnan-20-o] [3β-(4'-Acetylphenylethynyl)-3α-hydroxy-19-nor-5β-pregnan-20-one] yielded an IC50 of 6 nM and an IMAX of 90%.
